# Assays:
# [1] = tested on: MCF-7 (human breast cancer cells); experiment: Inhibition of proliferation of tumor cell lines (MTT), MCF-7; type: cell-based; details: Homo sapiens, MCF7, MCF-7, 72 h, read-out: IC50 value of compound for inhibition of proliferation of tumor cell lines, MCF-7
# Procedure: (§1) In this example, the inhibitory activity of compounds of the present invention against proliferation of seven human tumor cell lines and mouse B16-F10 melanoma cells was tested in vitro, and the IC50 value (50% inhibitory concentration) of compounds against each tumor cell line was calculated.
# (§2) The seven human tumor cell lines are: MCF-7 (human breast cancer cells), LOVO (human colon cancer cells), A549 (human lung cancer cells), BGC-823 (human gastric cancer cells), SMMC-7721 (human liver cancer cells), K562 (human leukemia cells), and HeLa (human cervical cancer cells).
# (§3) IC50 values of the compounds for A549, BGC-823, LOVO, MCF-7, SMMC-7721, HeLa, and B16-F10 cells were tested. The above cells were routinely cultured in 1640 nutrient solution containing 10% calf serum, with passage for 1 time every 2 days, and the cells in logarithmic growth phase were taken for experiments. After the A549, BGC-823, LOVO, MCF-7, SMMC-7721, HeLa and B16-F10 cells in logarithmic growth phase were subjected to 0.25% trypsin digestion, they were blown into a single cell suspension, and then the cell concentration was adjusted to about 1×10^5·mL^−1 using RPMI 1640 solution containing 10% calf serum. The cells were seeded in a 96-well culture plate at 100 μL per well, and cultured for 24 hours until the cells were attached. K562 cells were taken and centrifuged and diluted into 2×10^5·mL^−1 single cell suspension with RPMI 1640 solution containing 10% calf serum, and inoculated into a 96-well culture plate at 100 μL per well.
# (§4) 100 μL of sample solution with different concentrations to be tested were added to the above 96-well plate, each concentration was added to 4 wells in parallel, and the cell control group was added with an equal volume of RPMI 1640 medium containing 10% calf serum to make a reaction volume of 200 μL. After incubating in an incubator at 37° C., 5% CO2 for 72 h, 10 μL of 5 mg·mL^−1 MTT solution was added to each well, and incubated at 37° C. for 4 h. The supernatant was carefully aspirated, 180 μL of DMSO was added to each well followed by shaking, and the absorbance (OD) value was measured at 570 nm on the microplate reader. The inhibition rate was calculated, and regression equation was established with the logarithmic value of the sample concentration and the inhibition rate (IR) to find the IC50 value of the compound against the cells to be tested. IR (%)=(1−OD value of the experimental group/OD value of the cell control group)×100%
# [2] = tested on: A549 (human lung cancer cells); experiment: Inhibition of proliferation of tumor cell lines (MTT), A549; type: cell-based; details: Homo sapiens, A549, 72 h, read-out: IC50 value of compound for inhibition of proliferation of tumor cell lines, A549
# Procedure: as §1, §2, §3, §4
# [3] = tested on: neutrophilic granulocytes; experiment: Neutrophil oxidative burst (luminol chemiluminescence); type: cell-based; details: Neutrophil, rat neutrophils, (Csample−Ccontrol)/Ccontrol×100%, read-out: Efficiency of compounds in stimulating neutrophil oxidative burst; for activation at 0.1 µg/mL: 0.1 μg/mL; for activation at 3 µg/mL: 3 μg/mL
# Procedure: This example investigated the effect of compound on neutrophil oxidative burst and calculated the efficiency of each compound in stimulating neutrophil oxidative burst.
# Blood was taken from the abdominal aorta of rat. The neutrophilic granulocytes were isolated by the operational procedure of the rat peripheral blood neutrophil isolation kit. The neutrophilic granulocytes were re-suspended by Hanks, and were plated in a 96-well white plate at 1×10^5 cells/well, 80 μL/well; 1 mM of Luminol was added at 10 μL/well; 10 μL of the sample was added to each well, and the degree of oxidative burst was evaluated by chemiluminescence. Calculation formula of Efficiency: Efficiency (%)=(Csample−Ccontrol)/Ccontrol×100%
# [4] = tested on: release of IL-8 by human keratinocytes (HaCaT); experiment: Release of IL-8 by human keratinocytes (HaCaT), IL-8 Elisa; type: cell-based; details: Homo sapiens, HaCaT, 24 h, (Csample−Ccontrol)/Ccontrol×100%, read-out: Efficiency of compound in stimulating the release of IL-8 by HaCaT cells; for activation at 0.1 µg/mL: 0.1 μg/mL; for activation at 1 µg/mL: 1 μg/mL
# Procedure: This Example investigated the effect of compound on release of IL-8 by human keratinocytes (HaCaT) and calculated the efficiency of each compound in stimulating the release of IL-8 by human keratinocytes (HaCaT).
# Hacat cells were cultured in MEM+10% FBS under the conditions of 37° C., 5% CO2, and when the cells reached 80-95% fusion, they were inoculated into a 96-well culture plate (1×10^4 cells/well) at 100 μL/well, and incubated for 18-24 h. The supernatant was discarded and the cells were incubated for 3-6 h in 1% FBS medium. Different concentrations of the sample solution of compound to be tested were added to each well, and the cell control group was added with an equal volume of 1% FBS medium at 10 μL/well, and incubated for 24 h. The supernatant was taken and tested according to the operation sequence of the IL-8 Elisa kit. Calculation formula of Efficiency: Efficiency (%)=(Csample−Ccontrol)/Ccontrol×100%
# [5] = tested on: SMMC-7721 (human liver cancer cells); experiment: Inhibition of proliferation of tumor cell lines (MTT), SMMC-7721; type: cell-based; details: Homo sapiens, SMMC-7721, 72 h, read-out: IC50 value of compound for inhibition of proliferation of tumor cell lines, SMMC-7721
# Procedure: as §1, §2, §3, §4
# [6] = tested on: HeLa (human cervical cancer cells); experiment: Inhibition of proliferation of tumor cell lines (MTT), HeLa; type: cell-based; details: Homo sapiens, 72 h, read-out: IC50 value of compound for inhibition of proliferation of tumor cell lines, HeLA
# Procedure: as §1, §2, §3, §4
# [7] = tested on: BGC-823 (human gastric cancer cells); experiment: Inhibition of proliferation of tumor cell lines (MTT), BGC-823; type: cell-based; details: Homo sapiens, BGC-823, 72 h, read-out: IC50 value of compound for inhibition of proliferation of tumor cell lines, BGC-823
# Procedure: as §1, §2, §3, §4
# [8] = tested on: LOVO (human colon cancer cells); experiment: Inhibition of proliferation of tumor cell lines (MTT), LOVO; type: cell-based; details: Homo sapiens, 72 h, read-out: IC50 value of compound for inhibition of proliferation of tumor cell lines, LOVO
# Procedure: as §1, §2, §3, §4
# [9] = tested on: mouse B16-F10 melanoma cells; experiment: Inhibition of proliferation of tumor cell lines (MTT), B16-F10; type: cell-based; details: Mus musculus, B16-F10, 72 h, read-out: IC50 value of compound for inhibition of proliferation of tumor cell lines, B16-F10
# Procedure: as §1, §3, §4
# B16-F0 mouse melanoma = experiment: Antitumor activity in B16-F0 mouse melanoma model; type: in vivo; details: female C57BL/6J mice, intradermal B16 tumor, skin administration once per day for 3 days, 20 μL/mouse, tumor weight on day 19
# Procedure: This Example investigated the antitumor activity of compounds in B16-F0 mouse melanoma model.
# In vitro passage of B16-F0 tumor source was inoculated subcutaneously into female C57BL/6J mice, and passage was carried out after tumor formation. After passage, the subcutaneous tumor tissue of the tumor-bearing mice was taken and ground with 3 times amount of physiological saline to form a tumor cell suspension, and 0.2 mL/mouse of which was inoculated subcutaneously into the axilla of forelimb of mice, which were used as the tumor-source mice. Female C57BL/6J mice were taken and their hair in an area of 4 cm^2 on the neck and back was shaven. After anesthesia with diethyl ether, B16 tumor source was inoculated intradermally at 0.05 mL/mouse. After 3 days of inoculation, the skin was continuously administered for 3 days, once per day, 20 μL/mouse each time, and in the test, a solvent group as a negative control group was included. On the 19th day of the experiment, the experiment was terminated. After the mice were euthanized, the intradermally transplanted tumors were completely separated and excised, and the tumor was weighed to calculate the tumor inhibition rate. Calculation formula of tumor inhibition rate: tumor inhibition rate (%)=(Wmodel group−Wadministration group)/Wmodel group×100%
# The tumor growths of the experimental group and the solvent control group were compared to evaluate the antitumor activity of each compound, and the compound with P<0.05 was considered to be effective.
# [10] = tested on: K562 (human leukemia cells); experiment: Inhibition of proliferation of tumor cell lines (MTT), K562; type: cell-based; details: Homo sapiens, K562, 72 h, read-out: IC50 value of compound for inhibition of proliferation of tumor cell lines, K562
# Procedure: as §1, §2, §3, §4
smiles,measurement,setting,value
CCCCCCCCCCCC(=O)O[C@@]12C[C@@H](C)[C@]34C=C(C)[C@H](OC(=O)C(C)(C)C)[C@@]3(O)[C@H](O)C(CO)=C[C@H](C4=O)[C@@H]1C2(C)C [3-O-trimethylacetyl-13-O-dodecanoyl-ingenol],IC50,[1],8.79 µg/mL
same,IC50,[2],17.5 µg/mL
same,activation at 0.1 µg/mL,[3],205%
same,activation at 0.1 µg/mL,[4],83.7%
same,IC50,[5],15.1 µg/mL
same,IC50,[6],14.2 µg/mL
same,IC50,[7],6.81 µg/mL
same,IC50,[8],9.68 µg/mL
same,IC50,[9],7.7 µg/mL
same,Tumor-inhibition rate,B16-F0 mouse melanoma,47.4%
same,IC50,[10],< 0.2 µg/mL
"C/C=C(/C)C(=O)O[C@H]1C(C)=C[C@]23C(=O)[C@@H](C=C(CO)[C@@H](O)[C@]12O)[C@@H]1C(C)(C)[C@]1(OC(=O)CCCCCCCCCCC)C[C@H]3C [Compound 9, 3-O-angeloyl-13-O-dodecanoyl-ingenol]",IC50,[1],10.1 µg/mL
same,IC50,[2],10.8 µg/mL
same,activation at 3 µg/mL,[3],77%
same,activation at 1 µg/mL,[4],23.5%
same,IC50,[5],8.86 µg/mL
same,IC50,[6],12.5 µg/mL
same,IC50,[7],0.85 µg/mL
same,IC50,[8],10.1 µg/mL
same,IC50,[9],10.4 µg/mL
same,Tumor-inhibition rate,B16-F0 mouse melanoma,71.8%
same,IC50,[10],1.87 µg/mL
"CCCCCCCCCCCC(=O)O[C@@]12C[C@@H](C)[C@]34C=C(C)[C@H](O)[C@@]3(O)[C@H](O)C(COC(C)=O)=C[C@H](C4=O)[C@@H]1C2(C)C [Compound 12, 20-O-acetyl-13-O-dodecanoyl-ingenol]",IC50,[1],12.7 µg/mL
same,IC50,[2],16 µg/mL
same,activation at 3 µg/mL,[3],88.3%
same,activation at 1 µg/mL,[4],37%
same,IC50,[5],12.7 µg/mL
same,IC50,[6],32.3 µg/mL
same,IC50,[7],10.3 µg/mL
same,IC50,[8],6.71 µg/mL
same,IC50,[9],14 µg/mL
same,Tumor-inhibition rate,B16-F0 mouse melanoma,40.7%
same,IC50,[10],0.06 µg/mL
"C/C=C(/C)C(=O)O[C@H]1C(C)=C[C@]23C(=O)[C@@H](C=C(CO)[C@@H](O)[C@]12O)[C@@H]1C(C)(C)[C@]1(OC(=O)CCC)C[C@H]3C [Compound 16, 3-O-angeloyl-13-O-butanoyl-ingenol]",IC50,[1],38.4 µg/mL
same,IC50,[2],46.8 µg/mL
same,activation at 3 µg/mL,[3],80.1%
same,activation at 0.1 µg/mL,[4],84.6%
same,IC50,[5],43.5 µg/mL
same,IC50,[6],61.1 µg/mL
same,IC50,[7],44.1 µg/mL
same,IC50,[8],36.9 µg/mL
same,IC50,[9],17 µg/mL
same,Tumor-inhibition rate,B16-F0 mouse melanoma,89.6%
same,IC50,[10],4.21 µg/mL
"C/C=C(/C)C(=O)O[C@H]1C(C)=C[C@]23C(=O)[C@@H](C=C(CO)[C@@H](O)[C@]12O)[C@@H]1C(C)(C)[C@]1(OC(=O)CCCCC)C[C@H]3C [Compound 17, 3-O-angeloyl-13-O-hexanoyl-ingenol]",IC50,[1],18.6 µg/mL
same,IC50,[2],21.7 µg/mL
same,activation at 0.1 µg/mL,[3],82.1%
same,activation at 0.1 µg/mL,[4],121%
same,IC50,[5],21.1 µg/mL
same,IC50,[6],18.6 µg/mL
same,IC50,[7],21.7 µg/mL
same,IC50,[8],16.9 µg/mL
same,IC50,[9],6.5 µg/mL
same,Tumor-inhibition rate,B16-F0 mouse melanoma,68.8%
same,IC50,[10],2.93 µg/mL
"C/C=C(/C)C(=O)O[C@H]1C(C)=C[C@]23C(=O)[C@@H](C=C(CO)[C@@H](O)[C@]12O)[C@@H]1C(C)(C)[C@]1(OC(=O)CCCCCCC)C[C@H]3C [Compound 18, 3-O-angeloyl-13-O-octanoyl-ingenol]",IC50,[1],11.7 µg/mL
same,IC50,[2],13.6 µg/mL
same,activation at 0.1 µg/mL,[3],69.1%
same,activation at 0.1 µg/mL,[4],29.8%
same,IC50,[5],12.4 µg/mL
same,IC50,[6],12.2 µg/mL
same,IC50,[7],10.1 µg/mL
same,IC50,[8],8.47 µg/mL
same,IC50,[9],8.43 µg/mL
same,Tumor-inhibition rate,B16-F0 mouse melanoma,59.0%
same,IC50,[10],1.41 µg/mL
"C/C=C(/C)C(=O)O[C@H]1C(C)=C[C@]23C(=O)[C@@H](C=C(CO)[C@@H](O)[C@]12O)[C@@H]1C(C)(C)[C@]1(OC(=O)CCCCCCCCC)C[C@H]3C [Compound 19, 3-O-angeloyl-13-O-decanoyl-ingenol]",IC50,[1],9.3 µg/mL
same,IC50,[2],12.6 µg/mL
same,activation at 0.1 µg/mL,[3],43.5%
same,activation at 0.1 µg/mL,[4],144%
same,IC50,[5],13.4 µg/mL
same,IC50,[6],8.58 µg/mL
same,IC50,[7],14 µg/mL
same,IC50,[8],7.9 µg/mL
same,IC50,[9],9.85 µg/mL
same,Tumor-inhibition rate,B16-F0 mouse melanoma,65.7%
same,IC50,[10],2.13 µg/mL
"CCCCCCCCCCCC(=O)O[C@@]12C[C@@H](C)[C@]34C=C(C)[C@H](OC(=O)C(C)=C(C)C)[C@@]3(O)[C@H](O)C(CO)=C[C@H](C4=O)[C@@H]1C2(C)C [Compound 21, 3-O-(2,3-dimethylbutenoyl)-13-O-dodecanoyl-ingenol]",IC50,[1],8.32 µg/mL
same,IC50,[2],11.8 µg/mL
same,activation at 3 µg/mL,[3],34.8%
same,activation at 0.1 µg/mL,[4],127%
same,IC50,[5],12.8 µg/mL
same,IC50,[6],15.3 µg/mL
same,IC50,[7],10.4 µg/mL
same,IC50,[8],12.4 µg/mL
same,IC50,[9],15.1 µg/mL
same,Tumor-inhibition rate,B16-F0 mouse melanoma,64.1%
same,IC50,[10],2.06 µg/mL
